For assay [1], the target named is T1, recombinant calf intestinal alkaline phosphatase (b.IAP), expressed in CHO cells, SEQ ID NO: 10 (Bos taurus, UniProt P19111).
T1 construct: codes for a peptide of 533 amino acids in length; made in house; host or cells: Chinese hamster ovary (CHO) cells, ATCC No. CCL61
Nature of the assay: Kinetic parameters (Km, Ki for L-Phe) of recombinant calf IAP. Format: biochemical, calf (bovine). As to conditions: recombinant enzyme; read-out: K1 for L-Phe. The procedure:
(§1) Values for Km and Kl for L-Phe were determined for the recombinant enzyme as well as for purified protein from calf intestine as described in Hummer and Millan, supra, and Wilkinson, Biochem. J. 8:324-332 (1961), incorporated herein by reference.

Assay [2] addresses purified calf intestinal alkaline phosphatase (b.IAP) from natural sources (calf intestine). The experiment in a line: Kinetic parameters (Km, Ki for L-Phe) of purified natural calf IAP. The class given is biochemical, calf (bovine). Particulars: purified natural enzyme; read-out: K1 for L-Phe. As to the method: as §1

From patent US5773226A, “Recombinant calf intestinal alkaline phosphatase” (La Jolla Cancer Research Foundation, priority 1995, dated 1998) come the findings set out here.

T1 sequence (P19111 20-506 limits assumed): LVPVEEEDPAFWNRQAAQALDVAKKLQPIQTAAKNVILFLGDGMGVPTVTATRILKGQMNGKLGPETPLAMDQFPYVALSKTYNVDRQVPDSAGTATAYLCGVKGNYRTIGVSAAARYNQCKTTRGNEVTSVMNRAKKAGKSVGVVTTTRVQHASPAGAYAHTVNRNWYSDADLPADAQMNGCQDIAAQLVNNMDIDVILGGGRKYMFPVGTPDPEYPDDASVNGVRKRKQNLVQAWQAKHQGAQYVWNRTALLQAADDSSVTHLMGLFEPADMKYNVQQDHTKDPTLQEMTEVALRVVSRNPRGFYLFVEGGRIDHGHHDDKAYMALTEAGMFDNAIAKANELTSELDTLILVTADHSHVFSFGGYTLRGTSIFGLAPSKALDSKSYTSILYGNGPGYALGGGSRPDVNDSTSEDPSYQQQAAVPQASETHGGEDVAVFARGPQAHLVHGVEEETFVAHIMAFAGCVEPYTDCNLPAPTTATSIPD

Take `N[C@@H](Cc1ccccc1)C(=O)O` [L-Phe]: the Ki was 15.2 ± 1.8 mM in assay [1] and 11.2 ± 1 mM in assay [2].
